Key:
[1] = target: T1, human cloned CHRM2 receptor (M2_CHO cells) (Homo sapiens, UniProt P08172); assay: CHRM2 Ca++ Flux Assay (agonist mode, FDSS 7000EX); type: cell-based; conditions: for Emax: Percent Activity measured to EC100 of Carbachol, read-out: M2 FDSS PA; for EC50: agonist mode, geometric mean if tested more than once, read-out: M2 FDSS EC50
T1 construct: expressed in transfected cells; host or cells: CHO-K1
T1 sequence (P08172 1-466): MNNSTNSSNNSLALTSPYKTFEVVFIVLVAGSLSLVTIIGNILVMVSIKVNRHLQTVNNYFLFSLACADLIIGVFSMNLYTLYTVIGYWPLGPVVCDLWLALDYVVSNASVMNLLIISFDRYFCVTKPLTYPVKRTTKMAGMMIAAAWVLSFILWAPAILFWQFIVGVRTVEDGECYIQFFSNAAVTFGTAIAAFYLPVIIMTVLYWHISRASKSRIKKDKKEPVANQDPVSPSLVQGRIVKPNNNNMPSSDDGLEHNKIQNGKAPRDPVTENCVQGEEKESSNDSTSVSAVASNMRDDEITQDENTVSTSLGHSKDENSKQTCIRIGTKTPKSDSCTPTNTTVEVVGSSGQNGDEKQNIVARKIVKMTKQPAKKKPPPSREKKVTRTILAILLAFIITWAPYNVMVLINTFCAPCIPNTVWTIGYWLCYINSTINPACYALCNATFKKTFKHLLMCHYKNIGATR
Outline: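 Response expressed as percent activity versus the Carbachol EC100, with curves fitted by four-parameter non-linear regression of triplicates. Stable M2_CHO cells were Ca++ dye-loaded and preincubated 60 min at room temperature in assay buffer containing 20 μM ATP; signal imaged for 3 minutes after compound.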

[2] = target: T2, human cloned CHRM3 receptor (M3_CHO cells) (Homo sapiens, UniProt P20309); assay: CHRM3 Ca++ Flux Assay (agonist mode, FDSS 7000EX); type: cell-based; conditions: for Emax: Percent Activity measured to EC100 of Carbachol, read-out: M3 FDSS PA; for EC50: agonist mode, geometric mean if tested more than once, read-out: M3 FDSS EC50
T2 construct: expressed in transfected cells; host or cells: CHO-K1
Outline: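 CHO-K1 cells stably expressing human M3 or M5 receptor were dye-loaded for at least 1 h in HBSS with 20 mM HEPES and 2.5 mM probenecid, then given 11-point compound doses in triplicate.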

T2 sequence (P20309 whole entry): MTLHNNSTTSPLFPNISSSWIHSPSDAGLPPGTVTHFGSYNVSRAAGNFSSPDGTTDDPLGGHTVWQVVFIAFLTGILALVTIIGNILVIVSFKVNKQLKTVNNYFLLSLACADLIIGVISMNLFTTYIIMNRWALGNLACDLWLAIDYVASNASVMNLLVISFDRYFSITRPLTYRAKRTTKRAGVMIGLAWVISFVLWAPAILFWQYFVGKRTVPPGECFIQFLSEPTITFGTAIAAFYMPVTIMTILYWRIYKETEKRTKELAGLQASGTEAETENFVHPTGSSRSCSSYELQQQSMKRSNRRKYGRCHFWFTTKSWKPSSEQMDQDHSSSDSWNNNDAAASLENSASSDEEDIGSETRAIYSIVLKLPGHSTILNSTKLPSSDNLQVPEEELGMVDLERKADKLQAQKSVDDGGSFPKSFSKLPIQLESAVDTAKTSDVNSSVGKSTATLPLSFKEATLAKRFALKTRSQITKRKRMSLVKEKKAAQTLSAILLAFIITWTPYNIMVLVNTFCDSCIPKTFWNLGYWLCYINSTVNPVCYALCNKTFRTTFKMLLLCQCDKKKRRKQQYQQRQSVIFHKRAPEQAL

SMILES	Emax [1] [%]	EC50 [1] [nM]	Emax [2] [%]	EC50 [2] [µM]
CC(C)(O)COc1ccccc1C1CCN([C@@H]2CCC3(C2)CN(c2nncs2)C3)CC1 [Example 3G, (R)-1-(2-(1-(2-(1,3,4-thiadiazol-2-yl)-2-azaspiro[3.4]octan-6-yl)piperidin-4-yl)phenoxy)-2-methylpropan-2-ol]	20	304	0	> 25
c1ccc(C2CCN([C@@H]3CCC4(C3)CN(c3cncnc3)C4)CC2)c(OCC2COC2)c1 [Example 1N, (R)-6-(4-(2-(oxetan-3-ylmethoxy)phenyl)piperidin-1-yl)-2-(pyrimidin-5-yl)-2-azaspiro[3.4]octane]	10	7	0	> 25
CC(C)(O)CCOc1ccccc1C1CCN([C@@H]2CCC3(C2)CN(c2nnco2)C3)CC1 [Example 1F]	0		0	> 25
c1ccc(C2CCN([C@@H]3CCC4(C3)CN(c3nnco3)C4)CC2)c(OC2COC2)c1 [Example 1D, (R)-2-(6-(4-(2-(oxetan-3-yloxy)phenyl)piperidin-1-yl)-2-azaspiro[3.4]octan-2-yl)-1,3,4-oxadiazole]	40	35	0	> 25
Fc1cncc(N2CC3(CC[C@@H](N4CCC(c5ccccc5C5CCOCC5)CC4)C3)C2)c1 [Example 5AA, (R)-2-(5-fluoropyridin-3-yl)-6-(4-(2-(tetrahydro-2H-pyran-4-yl)phenyl)piperidin-1-yl)-2-azaspiro[3.4]octane]	28	1770	0	> 25
c1ccc(C2CCN([C@@H]3CCC4(C3)CN(c3cncnc3)C4)CC2)c(C2CCOCC2)c1 [Example 5BB, (R)-2-(pyrimidin-5-yl)-6-(4-(2-(tetrahydro-2H-pyran-4-yl)phenyl)piperidin-1-yl)-2-azaspiro[3.4]octane]	13	739	0	> 25
CC(C)COc1ccccc1C1CCN([C@@H]2CCC3(C2)CN(C(=O)C2COC2)C3)CC1 [Example 7F, (R)-(6-(4-(2-isobutoxyphenyl)piperidin-1-yl)-2-azaspiro[3.4]octan-2-yl)(oxetan-3-yl)methanone]	0		0	> 25
COc1ccc(F)cc1C1CCN([C@@H]2CCC3(C2)CN(c2ccnnc2)C3)CC1 [Example 5V, (R)-6-(4-(5-fluoro-2-methoxyphenyl)piperidin-1-yl)-2-(pyridazin-4-yl)-2-azaspiro[3.4]octane]	0		0	> 25
COCCOc1ccccc1C1CCN([C@@H]2CCC3(C2)CN(c2ccnnc2)C3)CC1 [Example 5Z, (R)-6-(4-(2-(2-methoxyethoxy)phenyl)piperidin-1-yl)-2-(pyridazin-4-yl)-2-azaspiro[3.4]octane]	0		0	> 25
c1ccc(C2CCN([C@@H]3CCC4(C3)CN(c3cncnc3)C4)CC2)c(O[C@@H]2CCOC2)c1 [Example 1P, (R)-2-(pyrimidin-5-yl)-6-(4-(2-(((R)-tetrahydrofuran-3-yl)oxy)phenyl)piperidin-1-yl)-2-azaspiro[3.4]octane]	7	7	0	> 25
CC(C)(O)COc1ccccc1C1CCN([C@@H]2CCC3(C2)CN(c2nnco2)C3)CC1 [Example 2A, (R)-1-(2-(1-(2-(1,3,4-oxadiazol-2-yl)-2-azaspiro[3.4]octan-6-yl)piperidin-4-yl)phenoxy)-2-methylpropan-2-ol]	12	117	0	> 25
c1ccc(C2CCN([C@@H]3CCC4(C3)CN(c3nncs3)C4)CC2)c(OC2COC2)c1 [Example 3A, (R)-2-(6-(4-(2-(oxetan-3-yloxy)phenyl)piperidin-1-yl)-2-azaspiro[3.4]octan-2-yl)-1,3,4-thiadiazole]	21	76	0	> 25
c1ccc(C2CCN([C@@H]3CCC4(C3)CN(c3nnco3)C4)CC2)c(OC2CCOCC2)c1 [Example 2F, (R)-2-(6-(4-(2-((tetrahydro-2H-pyran-4-yl)oxy)phenyl)piperidin-1-yl)-2-azaspiro[3.4]octan-2-yl)-1,3,4-oxadiazole]	22	64	0	> 25
COc1ccccc1C1CCN([C@@H]2CCC3(C2)CN(c2nncs2)C3)CC1 [Example 3D, (R)-2-(6-(4-(2-methoxyphenyl)piperidin-1-yl)-2-azaspiro[3.4]octan-2-yl)-1,3,4-thiadiazole]	17		0	> 25
Fc1ccc(C2CCOCC2)c(C2CCN([C@@H]3CCC4(C3)CN(c3nnco3)C4)CC2)c1 [Example 2I, (R)-2-(6-(4-(5-fluoro-2-(tetrahydro-2H-pyran-4-yl)phenyl)piperidin-1-yl)-2-azaspiro[3.4]octan-2-yl)-1,3,4-oxadiazole]	41	125	0	> 25
c1ccc(C2CCN([C@@H]3CCC4(C3)CN(c3nncs3)C4)CC2)c(OCC2COC2)c1 [Example 1G, (R)-2-(6-(4-(2-(oxetan-3-ylmethoxy)phenyl)piperidin-1-yl)-2-azaspiro[3.4]octan-2-yl)-1,3,4-thiadiazole]	38	75	0	> 25
COCCOc1ccccc1C1CCN([C@@H]2CCC3(C2)CN(c2nncs2)C3)CC1 [Example 3F, (R)-2-(6-(4-(2-(2-methoxyethoxy)phenyl)piperidin-1-yl)-2-azaspiro[3.4]octan-2-yl)-1,3,4-thiadiazole]	0		0	> 25
c1ccc(C2CCOC2)c(C2CCN([C@@H]3CCC4(C3)CN(c3nnco3)C4)CC2)c1 (stereo partly drawn) [Example 2K, 2-((6R)-6-(4-(2-(tetrahydrofuran-3-yl)phenyl)piperidin-1-yl)-2-azaspiro[3.4]octan-2-yl)-1,3,4-oxadiazole]	29	159	0	> 25

The remaining lines, values ahead:

Emax [1] [%]	EC50 [1] [nM]	Emax [2] [%]	EC50 [2] [µM]	SMILES
33	207	0		CCOc1ccccc1C1CCN([C@@H]2CCC3(C2)CN(C(=O)C2COC2)C3)CC1 [Example 7J, (R)-(6-(4-(2-ethoxyphenyl)piperidin-1-yl)-2-azaspiro[3.4]octan-2-yl)(oxetan-3-yl)methanone]
9	724	0	> 25	O=C(C1COC1)N1CC2(CC[C@@H](N3CCC(c4ccccc4OCCC(F)(F)F)CC3)C2)C1 [Example 7GG, (R)-oxetan-3-yl(6-(4-(2-(3,3,3-trifluoropropoxy)phenyl)piperidin-1-yl)-2-azaspiro[3.4]octan-2-yl)methanone]
0		0	> 25	CC(C)Oc1cc(F)ccc1C1CCN([C@@H]2CCC3(C2)CN(C(=O)C2COC2)C3)CC1 [Example 6D, (R)-(6-(4-(4-fluoro-2-isopropoxyphenyl)piperidin-1-yl)-2-azaspiro[3.4]octan-2-yl)(oxetan-3-yl)methanone]
77	651	0	> 25	CC(C)(F)COc1ccccc1C1CCN([C@@H]2CCC3(C2)CN(C(=O)C2COC2)C3)CC1 [Example 7B, (R)-(6-(4-(2-(2-fluoro-2-methylpropoxy)phenyl)piperidin-1-yl)-2-azaspiro[3.4]octan-2-yl)(oxetan-3-yl)methanone]
21	91	0	> 25	O=C(C1COC1)N1CC2(CC[C@@H](N3CCC(c4ccccc4OCCC4COC4)CC3)C2)C1 [Example 7KK, (R)-oxetan-3-yl(6-(4-(2-(2-(oxetan-3-yl)ethoxy)phenyl)piperidin-1-yl)-2-azaspiro[3.4]octan-2-yl)methanone]
0		0	> 25	O=C(C1COC1)N1CC2(CC[C@H](N3CCC(c4ccccc4OC(F)(F)F)CC3)C2)C1 (single isomer, unassigned) [Example 8G]
23	141	0	> 25	O=C(C1COC1)N1CC2(CC[C@@H](N3CCC(c4ccccc4OC[C@@H]4CCOC4)CC3)C2)C1 [Example 7E, oxetan-3-yl((R)-6-(4-(2-(((R)-tetrahydrofuran-3-yl)methoxy)phenyl)piperidin-1-yl)-2-azaspiro[3.4]octan-2-yl)methanone]

— patent US12122761B2, “2-azaspiro[3.4]octane derivatives as M4 agonists” (NOVARTIS AG, priority 2019, dated 2024)
